Laboratory results: patent US11739070B2, “C5A receptor modulators” (IDORSIA PHARMACEUTICALS LTD, priority 2018, dated 2023)

The molecules below were run against T1, C5AR1 (Homo sapiens, UniProt P21730) (assay: hC5a DISCO IC50 assay (PathHunter beta-arrestin, antagonist mode)). Conditions: CHO-K1 C5AR1 beta-arrestin cell line; antagonist vs 1-10 nM C5a agonist; geometric mean values; read-out: C5aR IC50.
T1 construct: host or cells: CHO-K1
T1 sequence (P21730 1-350): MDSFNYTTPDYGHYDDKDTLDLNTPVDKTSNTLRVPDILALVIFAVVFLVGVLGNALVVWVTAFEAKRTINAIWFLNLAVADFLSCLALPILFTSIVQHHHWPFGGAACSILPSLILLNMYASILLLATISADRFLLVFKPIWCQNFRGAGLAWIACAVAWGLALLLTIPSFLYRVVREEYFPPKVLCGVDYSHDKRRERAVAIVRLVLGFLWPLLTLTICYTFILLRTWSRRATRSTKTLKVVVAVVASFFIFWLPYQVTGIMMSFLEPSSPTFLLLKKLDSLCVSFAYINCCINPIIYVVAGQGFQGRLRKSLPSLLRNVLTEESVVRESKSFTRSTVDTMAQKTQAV
Format: cell-based
Procedure: II. Biological Assays In Vitro Assay hC5a DISCO IC50 Assay
5 μl Antagonist at 6-fold end concentration or DMSO control is added to assay medium and subsequently 5 μl 1-10 nM C5a agonist at 6 fold end concentration. Cells are centrifuged for 1 min at 1000 rpm and incubated for 1.5 hour in at 37° C. Plates are equilibrated at room temperature for several minutes before adding 12 μl/well Detection Reagent (PathHunter Detection Kit, DiscoverX, Cat #93-0001). Plates are centrifuged for 1 min at 1000 rpm and incubated for 45 minutes at RT before being measured on a Fluostar Optima, BMG Labtech. IC50 values are calculated from a serial dilution range of antagonist using inhouse software and given in nmol/l.
The calculated IC50 values may fluctuate depending on the daily cellular assay performance. Fluctuations of this kind are known to those skilled in the art. Average IC50 values from several measurements are given as geometric mean values.

IC50	Compound
132 nM	COc1cccc(F)c1N1CC[C@@H](n2c(=O)n(Cc3ccccc3C(F)(F)F)c3c(OC)nccc32)C1 [Example 49, 1-[(R)-1-(2-Fluoro-6-methoxy-phenyl)-pyrrolidin-3-yl]-4-methoxy-3-(2-trifluoromethyl-benzyl)-1,3-dihydro-imidazo[4,5-c]pyridin-2-one]
42 nM	COc1nccc2c1n(Cc1ccccc1C(F)(F)F)c(=O)n2[C@@H]1CCN(c2c(C)cccc2F)C1 [Example 50, 1-[(R)-1-(2-Fluoro-6-methyl-phenyl)-pyrrolidin-3-yl]-4-methoxy-3-(2-trifluoromethyl-benzyl)-1,3-dihydro-imidazo[4,5-c]pyridin-2-one]
62 nM	COc1cccc(C)c1N1CC[C@@H](n2c(=O)n(Cc3ccccc3C(F)(F)F)c3c(OC)nccc32)C1 [Example 51, 4-Methoxy-1-[(R)-1-(2-methoxy-6-methyl-phenyl)-pyrrolidin-3-yl]-3-(2-trifluoromethyl-benzyl)-1,3-dihydro-imidazo[4,5-c]pyridin-2-one]
30 nM	Cc1cccc(C)c1N1CC[C@@H](n2c(=O)n(Cc3ccccc3C(F)(F)F)c3c(OCCO)cccc32)C1 [Example 52, 1-[(R)-1-(2,6-Dimethyl-phenyl)-pyrrolidin-3-yl]-4-(2-hydroxy-ethoxy)-3-(2-trifluoromethyl-benzyl)-1,3-dihydro-benzoimidazol-2-one]
1840 nM	COc1cccc2c1n(Cc1cnccc1C(F)(F)F)c(=O)n2C1CCN(C(=O)OC(C)(C)C)CC1 [Example 53, 4-[4-Methoxy-2-oxo-3-(4-trifluoromethyl-pyridin-3-ylmethyl)-2,3-dihydro-benzoimidazol-1-yl]-piperidine-1-carboxylic acid tert-butyl ester]
43 nM	COc1cccc2c1n(Cc1cccnc1C(F)(F)F)c(=O)n2C1CCN(c2c(C)cccc2C)CC1 [Example 54, 1-[1-(2,6-Dimethyl-phenyl)-piperidin-4-yl]-4-methoxy-3-(2-trifluoromethyl-pyridin-3-ylmethyl)-1,3-dihydro-benzoimidazol-2-one]
178 nM	COc1cccc2c1n(Cc1cccnc1C(F)(F)F)c(=O)n2C1CCN(c2c(F)cccc2F)CC1 [Example 55, 1-[1-(2,6-Difluoro-phenyl)-piperidin-4-yl]-4-methoxy-3-(2-trifluoromethyl-pyridin-3-ylmethyl)-1,3-dihydro-benzoimidazol-2-one]
717 nM	COc1cccc(F)c1N1CC[C@@H](n2c(=O)n(Cc3ccccc3C(F)(F)F)c3c(=O)[nH]ccc32)C1 [Example 56, 1-[(R)-1-(2-Fluoro-6-methoxy-phenyl)-pyrrolidin-3-yl]-3-(2-trifluoromethyl-benzyl)-3,5-dihydro-1H-imidazo[4,5-c]pyridine-2,4-dione]
89 nM	Cc1cccc(F)c1N1CC[C@@H](n2c(=O)n(Cc3ccccc3C(F)(F)F)c3c(=O)[nH]ccc32)C1 [Example 57, 1-[(R)-1-(2-Fluoro-6-methyl-phenyl)-pyrrolidin-3-yl]-3-(2-trifluoromethyl-benzyl)-3,5-dihydro-1H-imidazo[4,5-c]pyridine-2,4-dione]
25 nM	COc1cccc2c1n(Cc1cnccc1C(F)(F)F)c(=O)n2C1CCN(c2c(C)cccc2C)CC1 [Example 58, 1-[1-(2,6-Dimethyl-phenyl)-piperidin-4-yl]-4-methoxy-3-(4-trifluoromethyl-pyridin-3-ylmethyl)-1,3-dihydro-benzoimidazol-2-one]
49 nM	COc1cccc2c1n(Cc1cnccc1C(F)(F)F)c(=O)n2C1CCN(c2c(F)cccc2F)CC1 [Example 59, 1-[1-(2,6-Difluoro-phenyl)-piperidin-4-yl]-4-methoxy-3-(4-trifluoromethyl-pyridin-3-ylmethyl)-1,3-dihydro-benzoimidazol-2-one]

More lines, now with the values behind:

Compound	IC50
COc1nccc(C)c1N1CC[C@@H](n2c(=O)n(Cc3ccccc3C(F)(F)F)c3c(OC)cccc32)C1 [Example 33, 4-Methoxy-1-[(R)-1-(2-methoxy-4-methyl-pyridin-3-yl)-pyrrolidin-3-yl]-3-(2-trifluoromethyl-benzyl)-1,3-dihydro-benzoimidazol-2-one]	8 nM
COc1cccc2c1n(Cc1ccccc1C(F)(F)F)c(=O)n2[C@@H]1CCN(c2c(F)cncc2F)C1 [Example 34, 1-[(R)-1-(3,5-Difluoro-pyridin-4-yl)-pyrrolidin-3-yl]-4-methoxy-3-(2-trifluoromethyl-benzyl)-1,3-dihydro-benzoimidazol-2-one]	27 nM
COc1cccc2c1n(Cc1ccccc1C(F)(F)F)c(=O)n2C1CCN(C(C)C)CC1 [Example 35, 1-(1-Isopropyl-piperidin-4-yl)-4-methoxy-3-(2-trifluoromethyl-benzyl)-1,3-dihydro-benzoimidazol-2-one]	4510 nM
COc1cccc2c1n(Cc1ccccc1C(F)(F)F)c(=O)n2[C@@H]1CCN(c2c(C)cncc2C)C1 [Example 36, 1-[(R)-1-(3,5-Dimethyl-pyridin-4-yl)-pyrrolidin-3-yl]-4-methoxy-3-(2-trifluoromethyl-benzyl)-1,3-dihydro-benzoimidazol-2-one]	450 nM
COc1cccc2c1n(Cc1ccccc1C(F)(F)F)c(=O)n2[C@@H]1CCN(c2c(C)ccnc2F)C1 [Example 37, 1-[(R)-1-(2-Fluoro-4-methyl-pyridin-3-yl)-pyrrolidin-3-yl]-4-methoxy-3-(2-trifluoromethyl-benzyl)-1,3-dihydro-benzoimidazol-2-one]	7 nM
COc1cncc(OC)c1N1CC[C@@H](n2c(=O)n(Cc3ccccc3C(F)(F)F)c3c(OC)cccc32)C1 [Example 38, 1-[(R)-1-(3,5-Dimethoxy-pyridin-4-yl)-pyrrolidin-3-yl]-4-methoxy-3-(2-trifluoromethyl-benzyl)-1,3-dihydro-benzoimidazol-2-one]	470 nM
COc1nccc2c1n(Cc1ccccc1C(F)(F)F)c(=O)n2[C@@H]1CCN(C(=O)OC(C)(C)C)C1 [Example 39, (R)-3-[4-Methoxy-2-oxo-3-(2-trifluoromethyl-benzyl)-2,3-dihydro-imidazo[4,5-c]pyridin-1-yl]-pyrrolidine-1-carboxylic acid tert-butyl ester]	2430 nM
Cc1cccc(F)c1N1CC[C@@H](n2c(=O)n(Cc3ccccc3C(F)(F)F)c3c(O)cccc32)C1 [Example 40, 1-[(R)-1-(2-Fluoro-6-methyl-phenyl)-pyrrolidin-3-yl]-4-hydroxy-3-(2-trifluoromethyl-benzyl)-1,3-dihydro-benzoimidazol-2-one]	6 nM
COc1nccc2c1n(Cc1ccccc1C(F)(F)F)c(=O)n2[C@@H]1CCN(c2c(C)cccc2C)C1 [Example 41, 1-[(R)-1-(2,6-Dimethyl-phenyl)-pyrrolidin-3-yl]-4-methoxy-3-(2-trifluoromethyl-benzyl)-1,3-dihydro-imidazo[4,5-c]pyridin-2-one]	18 nM
COc1nccc2c1n(Cc1ccccc1C(F)(F)F)c(=O)n2[C@@H]1CCN(c2c(F)cccc2F)C1 [Example 42, 1-[(R)-1-(2,6-Difluoro-phenyl)-pyrrolidin-3-yl]-4-methoxy-3-(2-trifluoromethyl-benzyl)-1,3-dihydro-imidazo[4,5-c]pyridin-2-one]	75 nM
COc1ccnc2c1n(Cc1ccccc1C(F)(F)F)c(=O)n2[C@@H]1CCN(C(=O)OC(C)(C)C)C1 [Example 43, (R)-3-[7-Methoxy-2-oxo-1-(2-trifluoromethyl-benzyl)-1,2-dihydro-imidazo[4,5-b]pyridin-3-yl]-pyrrolidine-1-carboxylic acid tert-butyl ester]	393 nM
Cc1cccc(C)c1N1CC[C@@H](n2c(=O)n(Cc3ccccc3C(F)(F)F)c3c(O)cccc32)C1 [Example 44, 1-[(R)-1-(2,6-Dimethyl-phenyl)-pyrrolidin-3-yl]-4-hydroxy-3-(2-trifluoromethyl-benzyl)-1,3-dihydro-benzoimidazol-2-one]	13 nM
COc1ccnc2c1n(Cc1ccccc1C(F)(F)F)c(=O)n2[C@@H]1CCN(c2c(C)cccc2C)C1 [Example 45, 3-[(R)-1-(2,6-Dimethyl-phenyl)-pyrrolidin-3-yl]-7-methoxy-1-(2-trifluoromethyl-benzyl)-1,3-dihydro-imidazo[4,5-b]pyridin-2-one]	16 nM
COc1ccnc2c1n(Cc1ccccc1C(F)(F)F)c(=O)n2[C@@H]1CCN(c2c(F)cccc2F)C1 [Example 46, 3-[(R)-1-(2,6-Difluoro-phenyl)-pyrrolidin-3-yl]-7-methoxy-1-(2-trifluoromethyl-benzyl)-1,3-dihydro-imidazo[4,5-b]pyridin-2-one]	39 nM
COc1nccc(C)c1N1CC[C@@H](n2c(=O)n(Cc3ccccc3C(F)(F)F)c3c(OC)nccc32)C1 [Example 47, 4-Methoxy-1-[(R)-1-(2-methoxy-4-methyl-pyridin-3-yl)-pyrrolidin-3-yl]-3-(2-trifluoromethyl-benzyl)-1,3-dihydro-imidazo[4,5-c]pyridin-2-one]	95 nM
COc1nccc2c1n(Cc1ccccc1C(F)(F)F)c(=O)n2[C@@H]1CCN(c2c(C)ccnc2F)C1 [Example 48, 1-[(R)-1-(2-Fluoro-4-methyl-pyridin-3-yl)-pyrrolidin-3-yl]-4-methoxy-3-(2-trifluoromethyl-benzyl)-1,3-dihydro-imidazo[4,5-c]pyridin-2-one]	165 nM
